Bridge positions count the residues as written; N and C are the ends. Peptide text beside a SMILES is read from it.

Data set [1] relates to B. cinerea. It counts as cell-based, Botrytis cinerea. To be noted: B. cinerea; for Minimal Inhibitory Concentration (MIC): resazurin assay in SFM, ~10^5 spores/mL, resazurin added after 48 h, three biological replicates. As to the method: (§1) B. cinerea strain T4 was cultured in V8 medium for 3 weeks at 25°C. Fungal spores were collected by flooding the fungal growth plates with water and scraped using a sterile spreader. The spore suspension was filtered through two layers of Miracloth, followed by centrifugation at 12,000 g for 2 minutes (min) and subsequently washed twice with sterile water. Lastly, fungal spores were resuspended in Synthetic Fungal Media (SFM). The spore suspension was adjusted to the desired spore density of about 10^5 spores/mL using a hemocytometer. Fusarium virguliforme (F. virguliforme) was grown and maintained regularly in potato dextrose agar (PDA) (Difco Laboratories) medium. Two weeks old F. virguliforme plates were used to collect spores as described above for B. cinerea followed by centrifugation and washing steps. Spores were counted using a hemocytometer and adjusted to the final concentration of 10^5 spores/mL in 2X SFM media. Sclerotinia sclerotiorum obtained from the field of pennycress in Illinois was grown on PDA medium at room temperature.
The antifungal activity of NCR13 against fungal pathogens was determined using the resazurin cell viability assay, as described previously. Briefly, 45 μL of each peptide dilution (0, 0.09, 0.1875, 0.375, 0.75, 1.5, 3, and 6 μM) was added to each well of the microtiter plate containing 45 μL (~10^5 spores/mL) of spore suspension. Three biological replicates were used for each treatment and the experiments were repeated three times. Resazurin at 0.1% (w/v) was added to each well after incubation for 48 h. Images were taken at ~24 h. The Minimum Inhibitory Concentration (MIC) for each peptide denotes the lowest concentration at which the peptide halts the growth of fungus evident through a lack of color change from blue to […]. The in vitro antifungal activity of NCR13_PFVs against S. sclerotiorum was determined using a 24-well plate assay as previously described. Mycelial plugs (1 mm in diameter) cut from the growing edge of the two day-old actively growing colony were transferred from PDA media to a series of wells containing 250 μL of SFM.
Background: The colour change of resazurin is a common sign of viable cells or microbes.

Data set [2] deals with Fusarium virguliforme. As to the kind of experiment: In vitro antifungal assay, resazurin cell viability (MIC). It is filed as cell-based. Particulars: resazurin assay in SFM, ~10^5 spores/mL. As to the method:
as §1
(§2) The antifungal activity of NCR13 against fungal pathogens was determined using the resazurin cell viability assay, as described previously. […] The in vitro antifungal activity of NCR13_PFVs against S. sclerotiorum was determined using a 24-well plate assay as previously described. […]

For data set [3], the system named is Sclerotinia sclerotiorum. Kind of data set: In vitro antifungal assay, 24-well plate with mycelial plugs (MIC). Particulars: mycelial plugs in 250 μL SFM. It is filed as cell-based. As to the method:
as §1, §2

Data set [4] concerns B. cinerea. It is filed as in vivo, Botrytis cinerea on tomato (Solanum lycopersicum). To be noted: 3 μM peptide sprayed on pre-inoculated four-week-old tomato plants; 5 leaves per plant, 4 plants. As to the method: To test the curative antifungal activity of peptides against B. cinerea, 4-week-old pepper and tomato plants were used. Plants were first sprayed with 1 mL of B. cinerea spores (about 5 × 10^4) suspended in SFM. After 8 h of B. cinerea challenge, 2 mL of NCR13_PFV1 or NCR13_PFV2 (3.0 and 1.5 μM) were sprayed per plant. Control plants were sprayed with 2 mL of water. All plants were placed in a high humid environment for 72 h. Plants were imaged at 72 h after infection in white light and high-resolution fluorescence images were taken using CropReporter (PhenoVation). The quantification of plant health was carried out using the calculated Fv/Fm (maximum quantum yield of photosystem II) images of CropReporter showing the efficiency of photosynthesis in false colors.
For the curative assay using pepper and tomato plants, pictures of whole plants and detached leaves were taken as described above. […] Four plants were used per treatment and for each plant the disease was assessed per leaf. Besides disease severity (DS), the inhibition of disease by treatment was also evaluated. […]

Data set [5] concerns trypsin. To be noted: 20-fold less (in mass) trypsin, room temperature, 1 h, read-out mass spectrometry.

In the case of `CC[C@H](C)[C@@H]1NC(=O)[C@@H]2CSSC[C@H](NC(=O)[C@@H]3CCCN3C(=O)[C@H](CCCCN)NC(=O)[C@@H](NC(=O)[C@H](C)N)[C@@H](C)O)C(=O)N[C@@H](CCC(N)=O)C(=O)N[C@@H](CO)C(=O)N[C@@H](CC(=O)O)C(=O)N[C@@H](CCCCN)C(=O)N[C@@H](CC(=O)O)C(=O)N[C@H]3CSSC[C@H](NC(=O)[C@H](Cc4ccccc4)NC(=O)CNC(=O)[C@H](CC(N)=O)NC1=O)C(=O)N[C@@H](CCCCN)C(=O)N[C@H](C(=O)N[C@H](C(=O)N[C@@H](CCCNC(=N)N)C(=O)O)C(C)C)CSSC[C@H](NC(=O)[C@H](C)NC(=O)[C@H](Cc1ccccc1)NC(=O)[C@H](CCCCN)NC(=O)[C@H](CCCCN)NC3=O)C(=O)N[C@@H](CCCNC(=N)N)C(=O)N[C@@H](CCCCN)C(=O)N1CCC[C@H]1C(=O)N[C@@H](CCCCN)C(=O)N[C@@H](C(C)C)C(=O)N1CCC[C@H]1C(=O)N[C@@H](CCCCN)C(=O)N2` [NCR13_PFV1] (H-ATKPCQSDKDCKKFACRKPKVPKCINGFCKCVR-OH; disulfide 5-24, 11-29, 16-31), the results for the “Minimal Inhibitory Concentration (MIC)” value in data set [1], in data set [2] and in data set [3] were 0.09 µM, 0.09 µM and 6.0 µM, respectively. Moreover, the “MIC in SFM+100 mM NaCl” value in data set [1] (synthetic fungal medium plus 100 mM NaCl) is recorded as more than 12 µM. Besides, the “inhibition of gray mold disease, tomato” value in data set [4] is reported as 90%. In data set [5], the digestion by trypsin entry was “could not be digested by trypsin”.
For the compound `CC[C@H](C)[C@@H]1NC(=O)[C@@H]2CSSC[C@H](NC(=O)[C@H](Cc3ccccc3)NC(=O)CNC(=O)[C@H](CC(N)=O)NC1=O)C(=O)N[C@@H](CCCCN)C(=O)N[C@H](C(=O)N[C@H](C(=O)N[C@@H](CCCNC(=N)N)C(=O)O)C(C)C)CSSC[C@H](NC(=O)[C@H](C)NC(=O)[C@H](Cc1ccccc1)NC(=O)[C@H](CCCCN)NC(=O)[C@H](CCCCN)NC(=O)[C@@H]1CSSC[C@H](NC(=O)[C@@H]3CCCN3C(=O)[C@H](CCCCN)NC(=O)[C@@H](NC(=O)[C@H](C)N)[C@@H](C)O)C(=O)N[C@@H](CCC(N)=O)C(=O)N[C@@H](CO)C(=O)N[C@@H](CC(=O)O)C(=O)N[C@@H](CCCCN)C(=O)N[C@@H](CC(=O)O)C(=O)N1)C(=O)N[C@@H](CCCNC(=N)N)C(=O)N[C@@H](CCCCN)C(=O)N1CCC[C@H]1C(=O)N[C@@H](CCCCN)C(=O)N[C@@H](C(C)C)C(=O)N1CCC[C@H]1C(=O)N[C@@H](CCCCN)C(=O)N2` [NCR13_PFV2] (H-ATKPCQSDKDCKKFACRKPKVPKCINGFCKCVR-OH; disulfide 5-11, 16-31, 24-29), the entries for the “Minimal Inhibitory Concentration (MIC)” value in data set [1], in data set [2] and in data set [3] were 1.5 µM, 1.5 µM and 24 µM, respectively. In data set [4], the “inhibition of gray mold disease, tomato” value is given as 40%.

(Values after paper PMC11637438, “Chickpea NCR13 disulfide cross-linking variants exhibit profound differences in antifungal activity and modes of action” (PLOS Pathogens, 2024).)
